Calls of active or inactive are those of the source. The calls are words filed in the database; no cut-off is given here.
Columns and labels:
Aspergillus fumigatus [1] = assay: Decrease in 1,3-beta-D-glucan level in Aspergillus fumigatus expressing delta-cnaA mutant assessed as relative fluorescence units at 1 ug/ml by aniline blue fluorescence assay; format: functional
Aspergillus fumigatus [2] = assay: Antifungal activity against Aspergillus fumigatus assessed as inhibition of hyphal growth at 1 ug/ml by radial growth assay; format: functional, organism-based
Aspergillus fumigatus [3] = assay: Antifungal activity against Aspergillus fumigatus expressing delta-cnaA mutant assessed as dead microbial cells at 1 ug/ml by trimethine oxonol staining; format: functional
Aspergillus fumigatus [4] = assay: Decrease in 1,3-beta-D-glucan level in Aspergillus fumigatus assessed as relative fluorescence units at 1 ug/ml by aniline blue fluorescence assay; format: functional
Aspergillus fumigatus [5] = assay: Antifungal activity against Aspergillus fumigatus assessed as induction of balloon-like of hyphal apical tips at 32 ug/ml after 48 hrs; format: functional, organism-based
Aspergillus fumigatus [6] = assay: Antifungal activity against Aspergillus fumigatus assessed as induction of stunted hyphal tips at 20 ng/ml after 6 hrs; format: functional, organism-based
Aspergillus fumigatus [7] = assay: Decrease in 1,3-beta-D-glucan level in Aspergillus fumigatus assessed as relative fluorescence units at 20 ng/ml by aniline blue fluorescence assay; format: functional
Aspergillus fumigatus [8] = assay: Effect on cellular morphology of Aspergillus fumigatus expressing delta-cnaA mutant assessed as induction hyphal tips blunting at 20 ng/ml; format: functional, organism-based
Aspergillus fumigatus [9] = assay: Effect on cellular morphology of Aspergillus fumigatus assessed as induction hyphal tips blunting at 20 ng/ml; format: functional, organism-based
Aspergillus fumigatus [10] = assay: Antifungal activity against Aspergillus fumigatus assessed as inhibition of hyphal growth at 20 ng/ml by radial growth assay; format: functional, organism-based
Aspergillus fumigatus [11] = assay: Antifungal activity against Aspergillus fumigatus ungerminated conidia assessed as delay in germ-tube extension at 20 ng/ml after 60 hrs of fungal growth; format: functional, organism-based

For `CC[C@H](C)C[C@H](C)CCCCCCCCC(=O)N[C@H]1C[C@@H](O)[C@@H](NCCN)NC(=O)[C@@H]2[C@@H](O)CCN2C(=O)[C@H]([C@H](O)CCN)NC(=O)[C@H]([C@H](O)[C@@H](O)c2ccc(O)cc2)NC(=O)[C@@H]2C[C@@H](O)CN2C(=O)[C@H]([C@@H](C)O)NC1=O` [CASPOFUNGIN], the RFU (Aspergillus fumigatus [1]) was 1.086, the Activity (Aspergillus fumigatus [2]) was “Active” and the Activity (Aspergillus fumigatus [3]) was 15%. The RFU (Aspergillus fumigatus [4]) was 6.187.
For `C[C@@H]([C@H](N)C(=O)N[C@H](C(=O)O)[C@H]1O[C@@H](n2ccc(=O)[nH]c2=O)[C@H](O)[C@@H]1O)[C@H](O)c1ccc(O)cn1`, the Activity (Aspergillus fumigatus [5]) was “Active”.
In the case of `C=CC[C@@H]1/C=C(\C)C[C@H](C)C[C@H](OC)[C@H]2O[C@@](O)(C(=O)C(=O)N3CCCC[C@H]3C(=O)O[C@H](/C(C)=C/[C@@H]3CC[C@@H](O)[C@H](OC)C3)[C@H](C)[C@@H](O)CC1=O)[C@H](C)C[C@@H]2OC` [TACROLIMUS ANHYDROUS], the Activity (Aspergillus fumigatus [6]) is reported as “Dose-dependent effect”, the RFU (Aspergillus fumigatus [7]) is reported as 2.909 and the Activity (Aspergillus fumigatus [8]) is reported as “Active”. For the same compound, the Activity (Aspergillus fumigatus [9]) was “Active”, the Activity (Aspergillus fumigatus [10]) was “Active” and the Activity (Aspergillus fumigatus [11]) was “Dose-dependent effect”.
